Measurements: article doi:10.1101/2021.11.05.467508v1, “Biochemical analysis of deacetylase activity of rice sirtuin OsSRT1, a class IV member in plants” (biorxiv, 2021)
Where two headings read alike, the source gives them in different places.

Experiments:
OsSRT1 (FL) [1] = target: T1, OsSRT1 (FL) (Oryza sativa, UniProt B8ARK7); assay: dot blot deacetylation assay, H3K9Ac; format: biochemical
T1 construct: gene SRT1; full length 1-483, cloned from rice leaf cDNA into pET30a, His-tagged, monomer by SEC
T1 sequence (B8ARK7 1-483): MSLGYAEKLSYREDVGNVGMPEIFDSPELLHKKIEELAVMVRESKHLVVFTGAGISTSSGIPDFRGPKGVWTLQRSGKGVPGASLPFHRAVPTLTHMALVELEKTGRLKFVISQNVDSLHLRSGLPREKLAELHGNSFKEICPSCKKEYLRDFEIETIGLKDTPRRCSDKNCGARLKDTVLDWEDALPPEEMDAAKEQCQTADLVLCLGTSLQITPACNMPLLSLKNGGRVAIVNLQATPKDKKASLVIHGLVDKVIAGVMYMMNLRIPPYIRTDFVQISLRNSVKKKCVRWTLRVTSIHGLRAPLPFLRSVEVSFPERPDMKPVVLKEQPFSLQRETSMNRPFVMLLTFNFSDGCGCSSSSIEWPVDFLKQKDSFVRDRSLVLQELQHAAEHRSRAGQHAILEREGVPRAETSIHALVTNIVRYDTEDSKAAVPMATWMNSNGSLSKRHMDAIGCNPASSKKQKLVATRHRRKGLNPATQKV

OsSRT1 (FL) [2] = target: T1, OsSRT1 (FL); assay: dot blot deacetylation assay, H3K9Ac; format: biochemical; remark: listed apart in the source

Compound	IC50 (OsSRT1 (FL) [1]) [µM]	further results
CCCC(=O)O [sodium butyrate]	98 ± 15	–
Oc1ccc(/C=C/c2cc(O)cc(O)c2)cc1 [resveratrol]	–	EC50 (OsSRT1 (FL) [2]): 236 ± 12 µM
NC(=O)c1cccnc1 [NAM]	147 ± 21	–
Nc1ncnc2c1ncn2[C@@H]1O[C@H](COP(=O)(O)OP(=O)(O)OC[C@H]2OC(O)[C@H](O)[C@@H]2O)[C@@H](O)[C@H]1O (stereo partly shown) [ADP-ribose]	–	IC50 (OsSRT1 (FL) [1]; H3K9Ac deacetylation, product inhibition): 25 ± 2 µM
